Reference: PMC5917001, “Counter-ion effect on antistaphylococcal activity and cytotoxicity of selected antimicrobial peptides” (Amino Acids, 2018)
Where no end group is shown, it is not given here.

Key:
S. aureus 015N (MRSA) = format: cell-based, Staphylococcus aureus; conditions: clinical strain, broth microdilution, 0.5 × 10^5 CFU/mL, 18 h, 37 °C, at least triplicate
Method: (§1) Microbiological assays were performed using reference and clinical strains of Staphylococcus aureus. Minimal inhibitory concentrations (MIC) were determined by broth microdilution method on 96-well polystyrene plates according to Clinical and Laboratory Standards Institute (CLSI) recommendations [Clinical and Laboratory Standards Institute (CLSI) [2012]]. For this purpose, the initial inoculums of 0.5 × 10^5 CFU/mL of bacteria were exposed to a range of concentrations of the peptides (0.5–256 µg/mL). All plates were incubated for 18 h at 37 °C. MIC was taken as the lowest concentration of the compound at which the growth of bacteria was not observed. Reference strains of S. aureus: ATCC 6538, ATCC 6538/P, ATCC 9144, ATCC 12598, and ATCC 25923 were obtained from the Polish Collection of Microorganisms (PCM, Polish Academy of Sciences, Wrocław), whereas 24 clinical strains were isolated from the patients of the Clinic of Dermatology, Venereology and Allergology (Medical University of Gdańsk). Nine strains were characterized as methicillin-resistant (MRSA). Preliminary identification and detection was conducted on the ChromID MRSA/ChromID S. aureus biplate (bioMérieux) for the simultaneous detection of S. aureus and methicillin-resistant S. aureus (MRSA). All experiments were conducted at least in triplicate.

S. aureus 033N = format: cell-based, Staphylococcus aureus; conditions: clinical strain, broth microdilution, 0.5 × 10^5 CFU/mL, 18 h, 37 °C, at least triplicate
Method: as §1

S. aureus 017S (MRSA) = format: cell-based, Staphylococcus aureus; conditions: clinical strain, broth microdilution, 0.5 × 10^5 CFU/mL, 18 h, 37 °C, at least triplicate
Method: as §1

S. aureus K46N = format: cell-based, Staphylococcus aureus; conditions: clinical strain, broth microdilution, 0.5 × 10^5 CFU/mL, 18 h, 37 °C, at least triplicate
Method: as §1

S. aureus 045N = format: cell-based, Staphylococcus aureus; conditions: clinical strain, broth microdilution, 0.5 × 10^5 CFU/mL, 18 h, 37 °C, at least triplicate
Method: as §1

S. aureus ATCC 12598 = format: cell-based, Staphylococcus aureus; conditions: ATCC 12598, reference strain; broth microdilution, 0.5 × 10^5 CFU/mL, 18 h, 37 °C, at least triplicate
Method: as §1

S. aureus 013S = format: cell-based, Staphylococcus aureus; conditions: clinical strain, broth microdilution, 0.5 × 10^5 CFU/mL, 18 h, 37 °C, at least triplicate
Method: as §1

S. aureus 039N = format: cell-based, Staphylococcus aureus; conditions: clinical strain, broth microdilution, 0.5 × 10^5 CFU/mL, 18 h, 37 °C, at least triplicate
Method: as §1

S. aureus 017N (MRSA) = format: cell-based, Staphylococcus aureus; conditions: clinical strain, broth microdilution, 0.5 × 10^5 CFU/mL, 18 h, 37 °C, at least triplicate
Method: as §1

S. aureus K19N = format: cell-based, Staphylococcus aureus; conditions: clinical strain, broth microdilution, 0.5 × 10^5 CFU/mL, 18 h, 37 °C, at least triplicate
Method: as §1

S. aureus 024N (MRSA) = format: cell-based, Staphylococcus aureus; conditions: clinical strain, broth microdilution, 0.5 × 10^5 CFU/mL, 18 h, 37 °C, at least triplicate
Method: as §1

S. aureus 053N = format: cell-based, Staphylococcus aureus; conditions: clinical strain, broth microdilution, 0.5 × 10^5 CFU/mL, 18 h, 37 °C, at least triplicate
Method: as §1

S. aureus 001S (MRSA) = format: cell-based, Staphylococcus aureus; conditions: clinical strain, broth microdilution, 0.5 × 10^5 CFU/mL, 18 h, 37 °C, at least triplicate
Method: as §1

S. aureus 002S = format: cell-based, Staphylococcus aureus; conditions: clinical strain, broth microdilution, 0.5 × 10^5 CFU/mL, 18 h, 37 °C, at least triplicate
Method: as §1

S. aureus ATCC 25923 = format: cell-based, Staphylococcus aureus; conditions: ATCC 25923, reference strain; broth microdilution, 0.5 × 10^5 CFU/mL, 18 h, 37 °C, at least triplicate
Method: as §1

S. aureus K50S = format: cell-based, Staphylococcus aureus; conditions: clinical strain, broth microdilution, 0.5 × 10^5 CFU/mL, 18 h, 37 °C, at least triplicate
Method: as §1

S. aureus 048S = format: cell-based, Staphylococcus aureus; conditions: clinical strain, broth microdilution, 0.5 × 10^5 CFU/mL, 18 h, 37 °C, at least triplicate
Method: as §1

S. aureus ATCC 6538/P = format: cell-based, Staphylococcus aureus; conditions: reference strain, broth microdilution, 0.5 × 10^5 CFU/mL, 18 h, 37 °C, at least triplicate
Method: as §1

S. aureus 001N (MRSA) = format: cell-based, Staphylococcus aureus; conditions: clinical strain, broth microdilution, 0.5 × 10^5 CFU/mL, 18 h, 37 °C, at least triplicate
Method: as §1

S. aureus ATCC 6538 = format: cell-based, Staphylococcus aureus; conditions: ATCC 6538, reference strain; broth microdilution, 0.5 × 10^5 CFU/mL, 18 h, 37 °C, at least triplicate
Method: as §1

S. aureus 060S = format: cell-based, Staphylococcus aureus; conditions: clinical strain, broth microdilution, 0.5 × 10^5 CFU/mL, 18 h, 37 °C, at least triplicate
Method: as §1

S. aureus 051N (MRSA) = format: cell-based, Staphylococcus aureus; conditions: clinical strain, broth microdilution, 0.5 × 10^5 CFU/mL, 18 h, 37 °C, at least triplicate
Method: as §1

S. aureus 030N = format: cell-based, Staphylococcus aureus; conditions: clinical strain, broth microdilution, 0.5 × 10^5 CFU/mL, 18 h, 37 °C, at least triplicate
Method: as §1

S. aureus 051S = format: cell-based, Staphylococcus aureus; conditions: clinical strain, broth microdilution, 0.5 × 10^5 CFU/mL, 18 h, 37 °C, at least triplicate
Method: as §1

S. aureus ATCC 9144 = format: cell-based, Staphylococcus aureus; conditions: ATCC 9144, reference strain; broth microdilution, 0.5 × 10^5 CFU/mL, 18 h, 37 °C, at least triplicate
Method: as §1

S. aureus 043SC (MRSA) = format: cell-based, Staphylococcus aureus; conditions: clinical strain, broth microdilution, 0.5 × 10^5 CFU/mL, 18 h, 37 °C, at least triplicate
Method: as §1

S. aureus 002N = format: cell-based, Staphylococcus aureus; conditions: clinical strain, broth microdilution, 0.5 × 10^5 CFU/mL, 18 h, 37 °C, at least triplicate
Method: as §1

S. aureus 005S = format: cell-based, Staphylococcus aureus; conditions: clinical strain, broth microdilution, 0.5 × 10^5 CFU/mL, 18 h, 37 °C, at least triplicate
Method: as §1

S. aureus 004N (MRSA) = format: cell-based, Staphylococcus aureus; conditions: clinical strain, broth microdilution, 0.5 × 10^5 CFU/mL, 18 h, 37 °C, at least triplicate
Method: as §1

[1] = tested on: S. aureus (29): reference (5) and clinical (24) strains; conditions: for Mean value of MIC: mean over 29 S. aureus strains (Table 5); for Mean MIC values: mean over 29 S. aureus strains, as repeated in Table 6
Method: as §1, with “For this purpose, the initial inoculums of 0.5 × 10^5 CFU/mL of bacteria were exposed to a range of concentrations of the peptides (0.5–256 µg/mL).” left out, “MIC was taken as the lowest concentration of the compound at which the growth of bacteria was not observed.” left out
To asses an overall activity of peptides, the mean MIC values were calculated.

Substance | MIC (S. aureus 015N (MRSA)) | MIC (S. aureus 033N) | MIC (S. aureus 017S (MRSA)) | MIC (S. aureus K46N) | MIC (S. aureus 045N) | MIC (S. aureus ATCC 12598) | MIC (S. aureus 013S) | MIC (S. aureus 039N) | MIC (S. aureus 017N (MRSA)) | MIC (S. aureus K19N) | MIC (S. aureus 024N (MRSA)) | MIC (S. aureus 053N) | MIC (S. aureus 001S (MRSA)) | MIC (S. aureus 002S) | MIC (S. aureus ATCC 25923) | MIC (S. aureus K50S) | MIC (S. aureus 048S) | MIC (S. aureus ATCC 6538/P) | MIC (S. aureus 001N (MRSA)) | Mean value of MIC [1] | further results
FLPLIGRVLSGIL-NH2 [Temporin A Cl^−] | 8 µg/mL | 4 µg/mL | 8 µg/mL | 8 µg/mL | 8 µg/mL | 4 µg/mL | 4 µg/mL | 4 µg/mL | 8 µg/mL | 8 µg/mL | 4 µg/mL | 4 µg/mL | 4 µg/mL | 4 µg/mL | 4 µg/mL | 4 µg/mL | 4 µg/mL | 8 µg/mL | 8 µg/mL | 5.7 µg/mL | MIC (S. aureus ATCC 6538): 4 µg/mL; MIC (S. aureus 060S): 4 µg/mL; MIC (S. aureus 051N (MRSA)): 8 µg/mL; MIC (S. aureus 030N): 4 µg/mL; MIC (S. aureus 051S): 8 µg/mL; MIC (S. aureus ATCC 9144): 8 µg/mL; MIC (S. aureus 043SC (MRSA)): 8 µg/mL; MIC (S. aureus 002N): 4 µg/mL; MIC (S. aureus 005S): 4 µg/mL; MIC (S. aureus 004N (MRSA)): 4 µg/mL; Mean MIC values [1]: 5.7 µg/mL
KWKLFKKIGAVLKVL-NH2 [CAMEL] | – | – | – | – | – | – | – | – | – | – | – | – | – | – | – | – | – | – | – | below 3.5 µg/mL | MIC range among strains ([1]; range over all S. aureus strains and the salts of the peptide): ≤ 0.25 to 8 µg/mL
GLFDVIKKVASVIGGL-NH2 [Citropin 1.1 AcO^−] | 8 µg/mL | 8 µg/mL | 8 µg/mL | 16 µg/mL | 16 µg/mL | 8 µg/mL | 2 µg/mL | 8 µg/mL | 4 µg/mL | 16 µg/mL | 2 µg/mL | 16 µg/mL | 16 µg/mL | 16 µg/mL | 16 µg/mL | 1 µg/mL | 16 µg/mL | 8 µg/mL | 16 µg/mL | 10.0 µg/mL | MIC (S. aureus ATCC 6538): 4 µg/mL; MIC (S. aureus 060S): 1 µg/mL; MIC (S. aureus 051N (MRSA)): 8 µg/mL; MIC (S. aureus 030N): 16 µg/mL; MIC (S. aureus 051S): 4 µg/mL; MIC (S. aureus ATCC 9144): 16 µg/mL; MIC (S. aureus 043SC (MRSA)): 8 µg/mL; MIC (S. aureus 002N): 16 µg/mL; MIC (S. aureus 005S): 2 µg/mL; MIC (S. aureus 004N (MRSA)): 8 µg/mL; Mean MIC values [1]: 10.0 µg/mL
GLFDVIKKVASVIGGL-NH2 [Citropin 1.1 Cl^−] | 8 µg/mL | 16 µg/mL | 4 µg/mL | 16 µg/mL | 16 µg/mL | 8 µg/mL | 2 µg/mL | 16 µg/mL | 4 µg/mL | 16 µg/mL | 2 µg/mL | 16 µg/mL | 16 µg/mL | 8 µg/mL | 16 µg/mL | 1 µg/mL | 16 µg/mL | 8 µg/mL | 16 µg/mL | 10.0 µg/mL | MIC (S. aureus ATCC 6538): 4 µg/mL; MIC (S. aureus 060S): 2 µg/mL; MIC (S. aureus 051N (MRSA)): 8 µg/mL; MIC (S. aureus 030N): 16 µg/mL; MIC (S. aureus 051S): 4 µg/mL; MIC (S. aureus ATCC 9144): 16 µg/mL; MIC (S. aureus 043SC (MRSA)): 8 µg/mL; MIC (S. aureus 002N): 16 µg/mL; MIC (S. aureus 005S): 2 µg/mL; MIC (S. aureus 004N (MRSA)): 8 µg/mL; Mean MIC values [1]: 10.0 µg/mL
KWKLFKKIGAVLKVL-NH2 [CAMEL AcO^−] | 4 µg/mL | 4 µg/mL | 2 µg/mL | 4 µg/mL | 4 µg/mL | 2 µg/mL | ≤ (≤ alone stands for MIC ≤ 0.25 µg/mL) | 4 µg/mL | 2 µg/mL | 2 µg/mL | ≤ (≤ alone stands for MIC ≤ 0.25 µg/mL) | 4 µg/mL | 4 µg/mL | 4 µg/mL | 8 µg/mL | 1 µg/mL | 4 µg/mL | 1 µg/mL | 2 µg/mL | ≤ 2.8 µg/mL | MIC (S. aureus ATCC 6538): ≤ (≤ alone stands for MIC ≤ 0.25 µg/mL); MIC (S. aureus 060S): 1 µg/mL; MIC (S. aureus 051N (MRSA)): 2 µg/mL; MIC (S. aureus 030N): 4 µg/mL; MIC (S. aureus 051S): 2 µg/mL; MIC (S. aureus ATCC 9144): 2 µg/mL; MIC (S. aureus 043SC (MRSA)): 4 µg/mL; MIC (S. aureus 002N): 4 µg/mL; MIC (S. aureus 005S): ≤ (≤ alone stands for MIC ≤ 0.25 µg/mL); MIC (S. aureus 004N (MRSA)): 4 µg/mL; Mean MIC values [1]: ≤ 2.8 µg/mL
